Test results taken from ChEMBL document CHEMBL5143714, “Discovery of BMS-986339, a Pharmacologically Differentiated Farnesoid X Receptor Agonist for the Treatment of Nonalcoholic Steatohepatitis” (J Med Chem, 2022).

Tests used:
[1] = Metabolic stability in human liver microsome assessed as parent compound remaining at […] measured after 10 mins; assay type: ADME; conditions: liver microsomes, read-out: Stability
[2] = Clearance in C57BL6 mouse at 1 mg/kg, iv; assay type: ADME, organism-based; conditions: in vivo
[3] = AUC (total) in C57BL6 mouse at 1 mg/kg, iv; assay type: ADME, organism-based; parameters: dose 1 mg/kg, route iv; conditions: in vivo
[4] = test system: Mus musculus; assay: Antifibrotic activity against bile duct ligation-induced liver cholestasis C57BL/6NTac mouse model assessed as reduction in hydroxyproline level in liver administered orally as single dose for 9 days and measured after 24 hrs post-last dose by picrosirius red staining method; assay type: functional, organism-based; conditions: dose 0.3-10 mg/kg, route po, time 9.0 day, DDE = dose-dependent effect
[5] = molecular target: Cytochrome P450 2D6 (Homo sapiens, UniProt P10635); assay: Inhibition of CYP2D6 in human liver microsomes using fluorogenic substrate preincubated for 15 min followed by NADPH addition measured after 2 hrs by fluorescence based assay; assay type: ADME, Microsome
[6] = molecular target: T1, Cytochrome P450 2C8 (Homo sapiens, UniProt P10632); assay: Inhibition of CYP2C8 in human liver microsomes using fluorogenic substrate preincubated for 15 min followed by NADPH addition measured after 2 hrs by fluorescence based assay; assay type: ADME, Microsome
T1 sequence (P10632 whole entry): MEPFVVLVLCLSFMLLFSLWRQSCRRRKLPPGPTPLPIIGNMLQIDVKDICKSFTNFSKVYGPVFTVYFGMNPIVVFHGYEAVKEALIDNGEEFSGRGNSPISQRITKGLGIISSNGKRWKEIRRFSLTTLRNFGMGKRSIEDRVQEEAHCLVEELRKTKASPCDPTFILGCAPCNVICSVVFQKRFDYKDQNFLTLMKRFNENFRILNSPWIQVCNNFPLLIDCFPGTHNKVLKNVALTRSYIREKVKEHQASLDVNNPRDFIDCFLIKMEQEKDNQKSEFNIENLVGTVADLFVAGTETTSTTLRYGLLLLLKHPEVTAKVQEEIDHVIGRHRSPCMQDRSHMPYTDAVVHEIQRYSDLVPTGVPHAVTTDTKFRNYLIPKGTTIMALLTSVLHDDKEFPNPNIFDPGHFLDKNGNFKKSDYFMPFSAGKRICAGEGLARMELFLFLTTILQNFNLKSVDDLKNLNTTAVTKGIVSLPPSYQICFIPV

[7] = molecular target: Cytochrome P450 2C9 (Homo sapiens, UniProt P11712); assay: Inhibition of CYP2C9 in human liver microsomes using fluorogenic substrate preincubated for 15 min followed by NADPH addition measured after 2 hrs by fluorescence based assay; assay type: ADME, Microsome
[8] = molecular target: T2, Solute carrier organic anion transporter family member 1B3 (Homo sapiens, UniProt Q9NPD5); assay: Inhibition of OATP1B3 (unknown origin)
T2 sequence (Q9NPD5 whole entry): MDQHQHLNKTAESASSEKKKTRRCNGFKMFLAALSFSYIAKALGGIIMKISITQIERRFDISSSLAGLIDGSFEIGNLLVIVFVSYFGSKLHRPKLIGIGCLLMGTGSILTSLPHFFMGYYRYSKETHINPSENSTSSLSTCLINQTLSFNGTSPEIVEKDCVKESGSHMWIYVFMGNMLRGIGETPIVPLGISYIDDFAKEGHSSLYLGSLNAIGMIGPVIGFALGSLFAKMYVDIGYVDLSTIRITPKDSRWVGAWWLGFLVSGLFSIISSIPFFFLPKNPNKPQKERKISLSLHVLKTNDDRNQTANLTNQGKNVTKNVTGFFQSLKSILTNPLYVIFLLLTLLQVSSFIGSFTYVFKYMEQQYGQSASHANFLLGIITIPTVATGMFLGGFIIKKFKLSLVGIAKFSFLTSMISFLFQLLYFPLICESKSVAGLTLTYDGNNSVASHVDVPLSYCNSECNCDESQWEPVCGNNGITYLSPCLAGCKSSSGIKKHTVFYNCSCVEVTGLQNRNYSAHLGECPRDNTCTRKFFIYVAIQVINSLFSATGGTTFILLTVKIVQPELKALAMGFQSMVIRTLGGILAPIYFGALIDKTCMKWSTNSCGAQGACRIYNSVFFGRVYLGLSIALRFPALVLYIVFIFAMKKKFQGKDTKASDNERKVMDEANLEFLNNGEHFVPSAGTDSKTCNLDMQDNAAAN

[9] = molecular target: T3, UDP-glucuronosyltransferase 1A1 (Homo sapiens, UniProt P22309); assay: Inhibition of human UGT1A1
T3 sequence (P22309 whole entry): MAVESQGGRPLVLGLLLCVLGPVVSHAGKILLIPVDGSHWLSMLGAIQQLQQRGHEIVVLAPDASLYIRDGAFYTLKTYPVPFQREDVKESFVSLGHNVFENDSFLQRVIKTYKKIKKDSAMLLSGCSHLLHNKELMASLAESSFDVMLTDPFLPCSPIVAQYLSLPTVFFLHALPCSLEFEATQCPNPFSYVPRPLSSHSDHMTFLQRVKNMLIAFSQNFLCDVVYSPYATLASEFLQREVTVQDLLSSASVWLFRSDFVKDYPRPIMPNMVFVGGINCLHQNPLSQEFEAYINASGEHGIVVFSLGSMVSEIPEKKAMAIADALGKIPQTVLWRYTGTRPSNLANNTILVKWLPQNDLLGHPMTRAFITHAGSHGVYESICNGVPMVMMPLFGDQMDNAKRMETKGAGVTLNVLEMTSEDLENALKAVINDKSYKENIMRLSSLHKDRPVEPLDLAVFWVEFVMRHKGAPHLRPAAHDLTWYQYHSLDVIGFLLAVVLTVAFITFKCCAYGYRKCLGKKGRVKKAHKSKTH

[10] = test system: Bile acid receptor (Homo sapiens); assay: Agonist activity at human FXR expressed in HEK293 cells coexpressing IBABP relative to GW2064; conditions: filed as agonist
[11] = test system: Bile acid receptor (Homo sapiens); assay: Agonist activity at human FXR expressed in HEK293 cells coexpressing human FGF19 incubated for 24 hrs by ELISA analysis relative to GW2064; conditions: filed as agonist

Sequence of Cytochrome P450 2C9 (P11712 whole entry): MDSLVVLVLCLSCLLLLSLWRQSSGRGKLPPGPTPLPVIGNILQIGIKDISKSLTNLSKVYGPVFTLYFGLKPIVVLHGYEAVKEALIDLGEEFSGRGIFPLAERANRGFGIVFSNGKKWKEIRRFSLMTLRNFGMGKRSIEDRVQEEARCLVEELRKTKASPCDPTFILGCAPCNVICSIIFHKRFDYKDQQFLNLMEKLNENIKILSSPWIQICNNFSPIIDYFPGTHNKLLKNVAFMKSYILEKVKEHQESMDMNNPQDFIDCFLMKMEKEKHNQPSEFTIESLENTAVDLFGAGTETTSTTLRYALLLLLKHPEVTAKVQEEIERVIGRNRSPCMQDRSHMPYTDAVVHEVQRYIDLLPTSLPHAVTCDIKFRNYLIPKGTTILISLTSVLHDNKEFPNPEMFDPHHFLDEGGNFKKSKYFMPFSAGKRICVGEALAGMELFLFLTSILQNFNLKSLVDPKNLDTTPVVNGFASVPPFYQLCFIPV
Sequence of Cytochrome P450 2D6 (P10635 whole entry): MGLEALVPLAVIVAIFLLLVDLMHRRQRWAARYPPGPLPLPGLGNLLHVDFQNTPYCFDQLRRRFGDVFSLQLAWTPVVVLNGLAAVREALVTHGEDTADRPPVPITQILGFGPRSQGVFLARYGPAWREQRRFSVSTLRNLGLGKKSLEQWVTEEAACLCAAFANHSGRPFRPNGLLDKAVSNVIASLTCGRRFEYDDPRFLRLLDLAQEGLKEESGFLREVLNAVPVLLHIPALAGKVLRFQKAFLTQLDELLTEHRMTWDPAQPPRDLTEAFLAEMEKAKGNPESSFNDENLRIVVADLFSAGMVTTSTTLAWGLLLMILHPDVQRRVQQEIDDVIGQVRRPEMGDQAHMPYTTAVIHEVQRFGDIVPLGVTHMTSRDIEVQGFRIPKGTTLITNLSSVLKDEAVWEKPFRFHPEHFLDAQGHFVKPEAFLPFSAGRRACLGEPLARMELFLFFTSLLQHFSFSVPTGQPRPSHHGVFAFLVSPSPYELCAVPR

- remaining at 10 min [1]: 100%
- clearance [2]: 1.6 mL/min/kg
- AUC [3]: 16.4 µM·h
- IC50 [5]: > 20 µM
- IC50 [6]: > 20 µM
- IC50 [7]: 8 µM
- IC50 [8]: 13.5 µM
- IC50 [9]: 1.5 µM
- Emax [10]: 80%
- Emax [11]: 89%
Compound: CC(C)(O)c1ccc(-c2cccc(N(CC34CCC(c5noc(C(C)(C)F)n5)(CC3)CC4)C(=O)[C@H]3C[C@](O)(C(F)(F)F)C3)c2)cc1
- Activity [4]: Dde
